This is an account of results in ChEMBL document CHEMBL3400117, “2-Aminophenanthroline dimer stabilized the C-C mismatched duplex DNA” (Bioorg Med Chem, 2015).

Molecules are shown by their SMILES.

Test [1] in a line: Binding affinity to 5'-GCTAAGCTAATGA-3'/3'-CGATTCCATTACT-5' duplex DNA (unknown origin) assessed as change in melting temperature.
A short description of test [2]: Binding affinity to 5'-GCTAAACAAATGA-3'/3'-CGATTTCTTTACT-5' duplex DNA (unknown origin) assessed as change in melting temperature.
Test [3] is described as follows: Binding affinity to 5'-CTAACTGAATG-3'/3'-GATTGGCTTAC-5' duplex DNA (unknown origin) in sodium cacodylate buffer assessed as change in melting temperature at 10 uM at pH 7.
Test [4] can be described thus: Binding affinity to 5'-CTAACCGAATG-3'/3'-GATTGCCTTAC-5' duplex DNA (unknown origin) in sodium cacodylate buffer assessed as change in melting temperature at pH 7.
A short description of test [5]: Binding affinity to 5'-GCTAACCTAATGA-3'/3'-CGATTGCATTACT-5' duplex DNA (unknown origin) assessed as change in melting temperature.
Test [6] can be described thus: Binding affinity to 5'-CTAACAGAATG-3'/3'-GATTGGCTTAC-5' duplex DNA (unknown origin) in sodium cacodylate buffer assessed as change in melting temperature at 10 uM at pH 7.
A short description of test [7]: Binding affinity to 5'-CTAACAGAATG-3'/3'-GATTGACTTAC-5' duplex DNA (unknown origin) in sodium cacodylate buffer assessed as change in melting temperature at 10 uM at pH 7.
A short description of test [8]: Binding affinity to 5'-CTAACCGAATG-3'/3'-GATTGGCTTAC-5' duplex DNA (unknown origin) in sodium cacodylate buffer assessed as change in melting temperature at 10 uM at pH 7.
Test [9] in a line: Binding affinity to 5'-CTAACTGAATG-3'/3'-GATTGTCTTAC-5' duplex DNA (unknown origin) in sodium cacodylate buffer assessed as change in melting temperature at 10 uM at pH 7.
The nature of test [10]: Binding affinity to 5'-CTAACCGAATG-3'/3'-GATTGCCTTAC-5' duplex DNA (unknown origin) in sodium cacodylate buffer assessed as change in melting temperature at 10 uM at pH 7.
Test [11] is described as follows: Binding affinity to 5'-GCTAATCAAATGA-3'/3'-CGATTACTTTACT-5' duplex DNA (unknown origin) assessed as change in melting temperature.
Test [12] in a line: Binding affinity to 5'-CTAACTGAATG-3'/3'-GATTGCCTTAC-5' duplex DNA (unknown origin) in sodium cacodylate buffer assessed as change in melting temperature at 10 uM at pH 7.
A short description of test [13]: Binding affinity to 5'-GCTAAGCCAATGA-3'/3'-CGATTCCGTTACT-5' duplex DNA (unknown origin) assessed as change in melting temperature.
A short description of test [14]: Binding affinity to 5'-CTAACGGAATG-3'/3'-GATTGGCTTAC-5' duplex DNA (unknown origin) in sodium cacodylate buffer assessed as change in melting temperature at 10 uM at pH 7.
The nature of test [15]: Binding affinity to 5'-GCTAACCAAATGA-3'/3'-CGATTGCTTTACT-5' duplex DNA (unknown origin) assessed as change in melting temperature.
The nature of test [16]: Binding affinity to 5'-GCTAACCGAATGA-3'/3'-CGATTGCCTTACT-5' duplex DNA (unknown origin) assessed as change in melting temperature.
Test [17] in a line: Binding affinity to 5'-GCTAACCCAATGA-3'/3'-CGATTGCGTTACT-5' duplex DNA (unknown origin) assessed as change in melting temperature.
Test [18] can be described thus: Binding affinity to 5'-CTAACTGAATG-3'/3'-GATTGACTTAC-5' duplex DNA (unknown origin) in sodium cacodylate buffer assessed as change in melting temperature at 10 uM at pH 7.
Test [19] in a line: Binding affinity to 5'-GCTAAGCAAATGA-3'/3'-CGATTCCTTTACT-5' duplex DNA (unknown origin) assessed as change in melting temperature.
Test [20] is described as follows: Binding affinity to 5'-CTAACAGAATG-3'/3'-GATTGCCTTAC-5' duplex DNA (unknown origin) in sodium cacodylate buffer assessed as change in melting temperature at 10 uM at pH 7.
Test [21] can be described thus: Binding affinity to 5'-GCTAAACTAATGA-3'/3'-CGATTTCATTACT-5' duplex DNA (unknown origin) assessed as change in melting temperature.
A short description of test [22]: Binding affinity to 5'-TCCAG_GCAAC-3'/3'-AGGTCGCGTTG-5' duplex DNA (unknown origin) in sodium cacodylate buffer assessed as change in melting temperature at 20 uM at pH 7.
A short description of test [23]: Binding affinity to 5'-TCCAGGCAAC-3'/3'-AGGTCCGTTG-5' duplex DNA (unknown origin) in sodium cacodylate buffer assessed as change in melting temperature at 20 uM at pH 7.
A short description of test [24]: Binding affinity to 5'-TCCAG_GCAAC-3'/3'-AGGTCCCGTTG-5' duplex DNA (unknown origin) in sodium cacodylate buffer assessed as change in melting temperature at 20 uM at pH 7.
Test [25] is described as follows: Binding affinity to 5'-TCCAG_GCAAC-3'/3'-AGGTCACGTTG-5' duplex DNA (unknown origin) in sodium cacodylate buffer assessed as change in melting temperature at 20 uM at pH 7.
A short description of test [26]: Binding affinity to 5'-TCCAG_GCAAC-3'/3'-AGGTCTCGTTG-5' duplex DNA (unknown origin) in sodium cacodylate buffer assessed as change in melting temperature at 20 uM at pH 7.

In the case of `O=C(CCNCCC(=O)Nc1ccc2ccc3cccnc3c2n1)Nc1ccc2ccc3cccnc3c2n1`, the shift in melting temperature (ΔTm) in test [1] came out at 5.6 °C; in [2], 4 °C; in test [3], 0.3 °C; in test [5], 5.6 °C; in test [6], 1.5 °C; in test [7], 2.1 °C. Moreover, the ΔTm in test [8] was determined as 0.3 °C; in test [9], 1.4 °C; in test [10], 7.8 °C; in test [11], 4.4 °C; in test [12], 4.4 °C; in test [13] it was 6.5 °C. Moreover, the ΔTm is 1.4 °C in [14]; 3.8 °C in test [15]; 4 °C in [16]; 4.7 °C in [17]; 0.4 °C in [18]; 4.2 °C in test [19]. The ΔTm turned out to be 4.4 °C in test [20] and 5.7 °C in [21]. Moreover, in test [4], the Activity result was “Dose-dependent effect”.

As to `NCCC(=O)Nc1ccc2ccc3cccnc3c2n1`, the ΔTm in [3] came to 1.3 °C; in test [6], 1.2 °C; in test [7] it was 1.3 °C; in test [8] it was 0.6 °C; in test [22], 3 °C; in test [9], 1.3 °C. In addition, the thermal shift (ΔTm) is 0.2 °C in [23]; 1.6 °C in test [10]; 0.4 °C in test [12]; 6 °C in [24]; 3.4 °C in test [25]; 3.6 °C in [26]. The thermal shift (ΔTm) came out at 0.8 °C in test [14], 0.9 °C in test [18] and 0.5 °C in [20].

For `O=C(CCNCCC(=O)Nc1ccc2ccccc2n1)Nc1ccc2ccccc2n1`, the ΔTm in test [3] is -0.5 °C; in test [6], -0.4 °C; in test [7] it was -0.5 °C; in [8], 0.2 °C; in test [9] it was 0.2 °C; in test [10], 2.6 °C. For the same molecule, the ΔTm was 0.7 °C in test [12], -0.2 °C in test [14], -0.1 °C in test [18] and 1.6 °C in test [20].

Take `O=C(CCNCCC(=O)Nc1ccc2ccc3cccnc3c2n1)Nc1ccc2ccccc2n1`: the ΔTm in test [3] was 0.1 °C; in [6] it was -0.2 °C; in test [7] it was 0 °C; in [8] it was 0.3 °C; in test [9] it was 1.5 °C; in test [10] it was 2.6 °C. Also, the ΔTm in test [12] was 2.3 °C; in test [14], 0.3 °C; in [18] it was -0.1 °C; in test [20], 0.4 °C.
